Reference: patent US20240239784A1, “INDOLE COMPOUNDS AND METHODS OF USE” (GENZYME CORPORATION, priority 2021, published 2024)

These compounds were tested on NBD1 (assay: Aggregation analysis of NBD1 thermal stability by differential static light scattering (DSLS)). Conditions: compound at 100 μM; ΔTagg versus DMSO control.
Format: binding, Human
Procedure: Purified recombinant NBD1 was produced using previously described methods (A. Schmidt, J. L. Mendoza, P. J. Thomas (2011) Biochemical and Biophysical Approaches to Probe CFTR Structure (365-376) M. D. Amaral, K. Kunzelmann (eds.), Cysic Fibrosis, Methods in Molecular Biology 741, Springer Science+Business Media). The effect of test compounds on thermal stability of NBD1 was evaluated by differential static light scattering (DSLS) using the Harbinger Stargazer-384 instrument (Epiphyte Three, Toronto, Canada). Test compounds were dissolved and diluted to desired concentrations in 100% DMSO. The compounds or DMSO controls (100 nL) were stamped into wells of a […] low volume optical plate (Corning Inc., Corning, NY) using the Echo 555 acoustic liquid handler (Labcyte Inc., San Jose, CA).
NBD1 protein was diluted to 0.2 mg/ml in S200 buffer (50 mM Tris-HCl, 150 mM NaCl, 5 mM MgCl2, 2 mM ATP, 2 mM DTT, pH7.6) containing 1% glycerol. 10 uL of protein solution was aliquoted into the 384-well plate harboring the test compounds and 10 uL mineral oil was overlayed onto the protein solution, using the epMotion robotic liquid handler (Eppendorf North America, Hauppauge, NY). After placing into the Stargazer instrument, the plate was heated at 1° C. per minute to 70° C. Images were captured from 25° C. to 70° C. every 0.5° C. At the end of the experiment run, instrument software integrated image files and analyzed data automatically. A […] regression curve was generated for each well, representing the increase in light scattering over time. A temperature of aggregation (Tagg) was calculated based on the inflection point of the curve. To better compare data across experiments the average Tagg for DMSO control wells was calculated and subtracted from values for wells containing compounds to obtain a “ΔTagg” value. These ΔTagg values reflect stabilizing efficacy of the compounds.

SMILES | DSLS NBD1/3D Human Stability delta-T (° C.) @ 100 (μM)
CC(C)NCc1c(Oc2cccc(-c3nnc(Cc4ccccc4)[nH]3)c2)ccc2[nH]ccc12 [Example 21, N-((5-(3-(5-Benzyl-4H-1,2,4-triazol-3-yl)phenoxy)-1H-indol-4-yl)methyl)propan-2-amine 2,2,2-trifluoroacetate] | B (4-8° C.)
Cc1c(Oc2ccc(F)c(-c3ncc(C(C)(O)c4ccccc4)[nH]3)c2)c(F)cc2[nH]cc(CC(=O)O)c12 (stereo not shown) [Example 74, 2-(6-Fluoro-5-(4-fluoro-3-(5-(1-hydroxy-1-phenylethyl)-1H-imidazol-2-yl)phenoxy)-4-methyl-1H-indol-3-yl)acetic acid] | B (4-8° C.)
OCc1c(Oc2cccc(-c3ncn(Cc4ccccc4)n3)c2)ccc2[nH]ccc12 [Example 23, (5-(3-(1-Benzyl-1H-1,2,4-triazol-3-yl)phenoxy)-1H-indol-4-yl)methanol] | B (4-8° C.)
CC(O)(c1ccccc1)c1cnc(-c2cccc(Oc3c(F)cc4[nH]ccc4c3CO)c2)[nH]1 (stereo not shown) [Example 8, 1-(2-(3-((6-Fluoro-4-(hydroxymethyl)-1H-indol-5-yl)oxy)phenyl)-1H-imidazol-5-yl)-1-phenylethan-1-ol] | A (T ≥8° C.)
C[S+]([O-])c1c(Oc2cccc(-c3ncc(C(O)c4ccccc4)[nH]3)c2)ccc2[nH]ccc12 (stereo not shown) [Example 55, (2-(3-((4-(Methylsulfinyl)-1H-indol-5-yl)oxy)phenyl)-1H-imidazol-5-yl)(phenyl)methanol] | B (4-8° C.)
O=C(NCC(O)C(F)(F)F)c1c(Oc2cccc(-c3nc(C(O)c4ccccc4)c[nH]3)c2)ccc2[nH]ccc12 (stereo not shown) [Example 83, 5-(3-(4-(Hydroxy(phenyl)methyl)-1H-imidazol-2-yl)phenoxy)-N-(3,3,3-trifluoro-2 hydroxypropyl)-1H-indole-4-carboxamide] | A (T ≥8° C.)
Cn1nc(-c2cccc(Oc3ccc4[nH]ccc4c3C(N)=O)c2)nc1Cc1ccccc1 [Example 57, 5-(3-(5-Benzyl-1-methyl-1H-1,2,4-triazol-3-yl)phenoxy)-1H-indole-4-carboxamide] | B (4-8° C.)
CS(=O)(=O)c1c(Oc2ccc(F)c(-c3nc(C(OCCO)c4ccccc4)c[nH]3)c2)c(F)cc2[nH]ccc12 (stereo not shown) [Example 72, 2-((2-(2-Fluoro-5-((6-fluoro-4-(methylsulfonyl)-1H-indol-5-yl)oxy)phenyl)-1H-imidazol-4-yl)(phenyl)methoxy)ethan-1-ol] | A (T ≥8° C.)
CC(O)(c1ccccc1)c1cnc(-c2cccc(Oc3ccc4[nH]ccc4c3S(C)(=O)=O)c2)[nH]1 (racemic) [Example 63, 1-(2-(3-((4-(methylsulfonyl)-1H-indol-5-yl)oxy)phenyl)-1H-imidazol-5-yl)-1-phenylethan-1-ol] | A (T ≥8° C.)
CC(C)(O)c1nc(-c2cc(Oc3c(F)cc4[nH]ccc4c3S(C)(=O)=O)ccc2F)[nH]c1Cc1ccccc1 [Example 79, 2-(5-Benzyl-2-(2-fluoro-5-((6-fluoro-4-(methylsulfonyl)-1H-indol-5-yl)oxy)phenyl)-1H-imidazol-4-yl)propan-2-ol] | B (4-8° C.)
c1ccc(Cc2nnc(-c3cncc(Oc4ccc5[nH]ccc5c4)c3)[nH]2)cc1 [Example 29, 5-((5-(5-Benzyl-4H-1,2,4-triazol-3-yl)pyridin-3-yl)oxy)-1H-indole] | C (≤4° C.)
CC(O)(c1ccccc1)c1cnc(-c2cccc(Oc3c(F)cc4[nH]ccc4c3C(N)=O)c2)[nH]1 (stereo not shown) [Example 9, 6-Fluoro-5-(3-(5-(1-hydroxy-1-phenylethyl)-1H-imidazol-2-yl)phenoxy)-1H-indole-4-carboxamide] | A (T ≥8° C.)
c1ccc(Cc2nnc(-c3cccc(Oc4ccc5[nH]cc6c5c4CNC6)c3)[nH]2)cc1 [Example 43, 6-(3-(5-Benzyl-4H-1,2,4-triazol-3-yl)phenoxy)-1,3,4,5-tetrahydropyrrolo[4,3,2-de]isoquinoline] | C (≤4° C.)
